Measured values published in patent US11292796B2 (SIGNAL PHARMACEUTICALS, LLC, priority 2008, dated 2022).

Target: T1, mTOR (Homo sapiens, UniProt P42345)
T1 construct: purchased Invitrogen PR8683A
Assay: mTOR HTR-FRET assay
Assay type: biochemical
Conditions: read-out: Act. Level (IC50 in mTor HTR-FRET assay)
Experimental: The following is an example of an assay that can be used to determine the mTOR inhibitory activity of a test compound. Heteroaryl Compounds were dissolved in DMSO and prepared as 10 mM stocks and diluted appropriately for the experiments. Reagents were prepared as follows:
“Simple TOR buffer” (used to dilute high glycerol TOR fraction): 10 mM Tris pH 7.4, 100 mM NaCl, 0.1% Tween-20, 1 mM DTT. Invitrogen mTOR (cat #PR8683A) was diluted in this buffer to an assay concentration of 0.200 μg/mL.
To 20 μL of the Simple mTor buffer is added 0.5 μL of test compound in DMSO. To initiate the reaction 5 μL of ATP/Substrate solution was added to 20 μL of the Simple TOR buffer solution (control) and to the compound solution prepared above.

T1 sequence (P42345 1360-2549 limits assumed): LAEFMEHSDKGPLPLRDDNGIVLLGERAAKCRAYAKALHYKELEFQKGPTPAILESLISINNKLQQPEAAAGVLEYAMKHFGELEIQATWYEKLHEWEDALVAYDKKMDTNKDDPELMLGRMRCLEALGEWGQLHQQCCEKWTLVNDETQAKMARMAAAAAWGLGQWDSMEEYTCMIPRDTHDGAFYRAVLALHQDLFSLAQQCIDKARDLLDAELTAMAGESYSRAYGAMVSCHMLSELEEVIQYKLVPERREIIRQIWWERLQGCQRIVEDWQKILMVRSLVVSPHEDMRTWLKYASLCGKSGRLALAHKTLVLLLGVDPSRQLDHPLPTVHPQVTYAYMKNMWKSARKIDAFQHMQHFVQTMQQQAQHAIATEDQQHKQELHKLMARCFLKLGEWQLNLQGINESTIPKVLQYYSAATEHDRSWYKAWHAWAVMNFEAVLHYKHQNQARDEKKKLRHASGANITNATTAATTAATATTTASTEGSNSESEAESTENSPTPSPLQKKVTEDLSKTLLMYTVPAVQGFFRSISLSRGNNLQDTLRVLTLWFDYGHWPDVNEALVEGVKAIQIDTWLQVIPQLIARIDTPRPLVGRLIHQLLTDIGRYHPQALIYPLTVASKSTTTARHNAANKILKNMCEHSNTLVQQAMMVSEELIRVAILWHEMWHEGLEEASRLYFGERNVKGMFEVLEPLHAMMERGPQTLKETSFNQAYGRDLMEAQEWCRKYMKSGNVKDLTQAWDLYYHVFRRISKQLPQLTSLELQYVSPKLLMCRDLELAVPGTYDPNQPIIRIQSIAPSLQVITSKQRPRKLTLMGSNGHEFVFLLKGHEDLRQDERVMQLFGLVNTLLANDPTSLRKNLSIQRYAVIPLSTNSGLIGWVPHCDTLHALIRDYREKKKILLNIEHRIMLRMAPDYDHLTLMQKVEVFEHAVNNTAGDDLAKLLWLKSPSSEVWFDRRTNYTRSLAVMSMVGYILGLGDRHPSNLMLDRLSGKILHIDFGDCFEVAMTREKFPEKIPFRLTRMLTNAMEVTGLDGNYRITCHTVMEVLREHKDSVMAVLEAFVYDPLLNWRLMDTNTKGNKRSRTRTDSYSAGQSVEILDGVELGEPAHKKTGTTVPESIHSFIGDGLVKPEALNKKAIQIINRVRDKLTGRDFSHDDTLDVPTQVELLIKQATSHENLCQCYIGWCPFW

| Compound | IC50 [nM] |
| --- | --- |
| CO[C@@H]1CC[C@H](N2CC(=O)Nc3ncc(-c4ccc(C(C)(C)O)nc4)nc32)C1 [Example 52, 6-(6-(2-hydroxypropan-2-yl)pyridin-3-yl)-4-((1S,3R)-3-methoxycyclopentyl)-3,4-dihydropyrazino[2,3-b]pyrazin-2(1H)-one] | 0.005 to 250 |
| CO[C@H]1CC[C@H](CN2CC(=O)Nc3ncc(-c4ccc(C(C)(C)O)nc4)nc32)C1 [Example 53, 6-(6-(2-hydroxypropan-2-yl)pyridin-3-yl)-4-(((1S,3S)-3-methoxycyclopentyl)methyl)-3,4-dihydropyrazino[2,3-b]pyrazin-2(1H)-one] | 0.005 to 250 |
| CO[C@@H]1CC[C@@H](CN2CC(=O)Nc3ncc(-c4ccc(C(C)(C)O)nc4)nc32)C1 [Example 54, 6-(6-(2-hydroxypropan-2-yl)pyridin-3-yl)-4-(((1R,3R)-3-methoxycyclopentyl)methyl)-3,4-dihydropyrazino[2,3-b]pyrazin-2(1H)-one] | 0.005 to 250 |
| CO[C@H]1CC[C@H](N2CC(=O)Nc3ncc(-c4ccc(C(C)(C)O)nc4)nc32)C1 [Example 55, 6-(6-(2-hydroxypropan-2-yl)pyridin-3-yl)-4-((1S,3S)-3-methoxycyclopentyl)-3,4-dihydropyrazino[2,3-b]pyrazin-2(1H)-one] | 1000 to 10000 |
| CO[C@@H]1CC[C@@H](N2CC(=O)Nc3ncc(-c4ccc(C(C)(C)O)nc4)nc32)C1 [Example 56, 6-(6-(2-hydroxypropan-2-yl)pyridin-3-yl)-4-((1R,3R)-3-methoxycyclopentyl)-3,4-dihydropyrazino[2,3-b]pyrazin-2(1H)-one] | 0.005 to 250 |
| CO[C@H]1CC[C@@H](CN2CC(=O)Nc3ncc(-c4ccc(C(C)(C)O)nc4)nc32)C1 [Example 57, 6-(6-(2-hydroxypropan-2-yl)pyridin-3-yl)-4-(((1R,3S)-3-methoxycyclopentyl)methyl)-3,4-dihydropyrazino[2,3-b]pyrazin-2(1H)-one] | 0.005 to 250 |
| CO[C@@H]1CC[C@H](CN2CC(=O)Nc3ncc(-c4ccc(C(C)(C)O)nc4)nc32)C1 [Example 58, 6-(6-(2-hydroxypropan-2-yl)pyridin-3-yl)-4-(((1S,3R)-3-methoxycyclopentyl)methyl)-3,4-dihydropyrazino[2,3-b]pyrazin-2(1H)-one] | 0.005 to 250 |
| COCCN1CC(=O)Nc2ncc(-c3ccc(-c4nnc[nH]4)c(F)c3)nc21 [Example 59, 6-(3-fluoro-4-(4H-1,2,4-triazol-3-yl)phenyl)-4-(2-methoxyethyl)-3,4-dihydropyrazino[2,3-b]pyrazin-2(1H)-one] | 0.005 to 250 |
| O=C1CN(CCC2CCOCC2)c2nc(-c3ccc(-c4nnc[nH]4)c(F)c3)cnc2N1 [Example 60, 6-(3-fluoro-4-(4H-1,2,4-triazol-3-yl)phenyl)-4-(2-(tetrahydro-2H-pyran-4-yl)ethyl)-3,4-dihydropyrazino[2,3-b]pyrazin-2(1H)-one] | 0.005 to 250 |
| Cc1cc(-c2nnc[nH]2)ccc1-c1cnc2c(n1)N(CC1CCOCC1)C1(CCCC1)C(=O)N2 [Example 61, 7′-(2-methyl-4-(4H-1,2,4-triazol-3-yl)phenyl)-1′-((tetrahydro-2H-pyran-4-yl)methyl)-1′H-spiro[cyclopentane-1,2′-pyrazino[2,3-b]pyrazin]-3′(4′H)-one] | 0.005 to 250 |
| Cc1cc(-c2nnc[nH]2)ccc1-c1cnc2c(n1)N(CC1CCOCC1)C1(CCC1)C(=O)N2 [Example 62, 7′-(2-methyl-4-(4H-1,2,4-triazol-3-yl)phenyl)-1′-((tetrahydro-2H-pyran-4-yl)methyl)-1′H-spiro[cyclobutane-1,2′-pyrazino[2,3-b]pyrazin]-3′(4′H)-one] | 0.005 to 250 |
| CC(C)(O)c1ccc(-c2cnc3c(n2)N(CC2CC2)CC(=O)N3)cn1 [Example 63, 4-(cyclopropylmethyl)-6-(6-(2-hydroxypropan-2-yl)pyridin-3-yl)-3,4-dihydropyrazino[2,3-b]pyrazin-2(1H)-one] | 250 to 500 |
| Cc1cc(-c2nnc[nH]2)ccc1-c1cnc2c(n1)NC1(CCCC1)C(=O)N2 [Example 64, 7′-(2-methyl-4-(4H-1,2,4-triazol-3-yl)phenyl)-1′H-spiro[cyclopentane-1,2′-pyrazino[2,3-b]pyrazin]-3′(4′H)-one] | 250 to 500 |
| Cc1cc(-c2nnc[nH]2)ccc1-c1cnc2c(n1)NC1(CCC1)C(=O)N2 [Example 65, 7′-(2-methyl-4-(4H-1,2,4-triazol-3-yl)phenyl)-1′H-spiro[cyclobutane-1,2′-pyrazino[2,3-b]pyrazin]-3′(4′H)-one] | 250 to 500 |
| Cc1cc(-c2nnc[nH]2)ccc1-c1cnc2c(n1)NC1(CC1)C(=O)N2 [Example 66, 7′-(2-methyl-4-(4H-1,2,4-triazol-3-yl)phenyl)-1′H-spiro[cyclopropane-1,2′-pyrazino[2,3-b]pyrazin]-3′(4′H)-one] | 0.005 to 250 |
| O=C1CN(C[C@H]2CCCO2)c2nc(-c3ccc(-c4nnc[nH]4)cc3)cnc2N1 [Example 67, (R)-6-(4-(4H-1,2,4-triazol-3-yl)phenyl)-4-((tetrahydrofuran-2-yl)methyl)-3,4-dihydropyrazino[2,3-b]pyrazin-2(1H)-one] | 0.005 to 250 |

| Compound | IC50 [nM] |
| --- | --- |
| O=C1CN(C[C@@H]2CCCO2)c2nc(-c3ccc(-c4nnc[nH]4)cc3)cnc2N1 [Example 68, (S)-6-(4-(4H-1,2,4-triazol-3-yl)phenyl)-4-((tetrahydrofuran-2-yl)methyl)-3,4-dihydropyrazino[2,3-b]pyrazin-2(1H)-one] | 0.005 to 250 |
| O=C1CN(CCC2CCOCC2)c2nc(-c3ccc4[nH]ncc4c3)cnc2N1 [Example 69, 6-(1H-indazol-5-yl)-4-(2-(tetrahydro-2H-pyran-4-yl)ethyl)-3,4-dihydropyrazino[2,3-b]pyrazin-2(1H)-one] | 250 to 500 |
| NC(=O)c1ccc(-c2cnc3c(n2)N(CCC2CCOCC2)CC(=O)N3)cc1 [Example 70, 4-(6-oxo-8-(2-(tetrahydro-2H-pyran-4-yl)ethyl)-5,6,7,8-tetrahydropyrazino[2,3-b]pyrazin-2-yl)benzamide] | 1000 to 10000 |
| COCCN1c2nc(-c3ccc(-c4nnc[nH]4)cc3C)cnc2NC(=O)C1(C)C [Example 71, 4-(2-methoxyethyl)-3,3-dimethyl-6-(2-methyl-4-(4H-1,2,4-triazol-3-yl)phenyl)-3,4-dihydropyrazino[2,3-b]pyrazin-2(1H)-one] | 0.005 to 250 |
| CCN1c2nc(-c3ccc(-c4nnc[nH]4)cc3C)cnc2NC(=O)C1(C)C [Example 72, 4-ethyl-3,3-dimethyl-6-(2-methyl-4-(4H-1,2,4-triazol-3-yl)phenyl)-3,4-dihydropyrazino[2,3-b]pyrazin-2(1H)-one] | 0.005 to 250 |
| Cc1cc(-c2nnc[nH]2)ccc1-c1cnc2c(n1)NCC(=O)N2 [Example 73, 6-(2-methyl-4-(4H-1,2,4-triazol-3-yl)phenyl)-3,4-dihydropyrazino[2,3-b]pyrazin-2(1H)-one] | 250 to 500 |
| Cc1nc(-c2nnc[nH]2)ccc1-c1cnc2c(n1)N(CC1CCOCC1)C(C)(C)C(=O)N2 [Example 74, 3,3-dimethyl-6-(2-methyl-6-(4H-1,2,4-triazol-3-yl)pyridin-3-yl)-4-((tetrahydro-2H-pyran-4-yl)methyl)-3,4-dihydropyrazino[2,3-b]pyrazin-2(1H)-one] | 0.005 to 250 |
| C[C@@H](O)c1ccc(-c2cnc3c(n2)N(CCC2CCOCC2)CC(=O)N3)cn1 [Example 75, (R)-6-(6-(1-hydroxyethyl)pyridin-3-yl)-4-(2-(tetrahydro-2H-pyran-4-yl)ethyl)-3,4-dihydropyrazino[2,3-b]pyrazin-2(1H)-one] | 0.005 to 250 |
| Cc1cc(-c2nnc[nH]2)ccc1-c1cnc2c(n1)N(CC1CCOCC1)C(C)(C)C(=O)N2 [Example 76, 3,3-dimethyl-6-(2-methyl-4-(4H-1,2,4-triazol-3-yl)phenyl)-4-((tetrahydro-2H-pyran-4-yl)methyl)-3,4-dihydropyrazino[2,3-b]pyrazin-2(1H)-one] | 0.005 to 250 |
| CO[C@H]1CC[C@H](N2CC(=O)Nc3ncc(-c4cnc(C(C)(C)O)cc4C)nc32)CC1 [Example 77, 6-(6-(2-hydroxypropan-2-yl)-4-methylpyridin-3-yl)-4-(trans-4-methoxycyclohexyl)-3,4-dihydropyrazino[2,3-b]pyrazin-2(1H)-one] | 0.005 to 250 |
| Cc1cc(C(C)(C)O)ncc1-c1cnc2c(n1)N(CC1CCOCC1)CC(=O)N2 [Example 78, 6-(6-(2-hydroxypropan-2-yl)-4-methylpyridin-3-yl)-4-((tetrahydro-2H-pyran-4-yl)methyl)-3,4-dihydropyrazino[2,3-b]pyrazin-2(1H)-one] | 0.005 to 250 |
| Cc1cc(-c2nnc[nH]2)ccc1-c1cnc2c(n1)NC(C)(C)C(=O)N2 [Example 79, 3,3-dimethyl-6-(2-methyl-4-(4H-1,2,4-triazol-3-yl)phenyl)-3,4-dihydropyrazino[2,3-b]pyrazin-2(1H)-one] | 250 to 500 |
| Cc1nc(-c2nnc[nH]2)ccc1-c1cnc2c(n1)N(CCC1CCOCC1)C(C)(C)C(=O)N2 [Example 80, 3,3-dimethyl-6-(2-methyl-6-(4H-1,2,4-triazol-3-yl)pyridin-3-yl)-4-(2-(tetrahydro-2H-pyran-4-yl)ethyl)-3,4-dihydropyrazino[2,3-b]pyrazin-2(1H)-one] | 0.005 to 250 |
| Cc1nc(C(C)(C)O)ccc1-c1cnc2c(n1)N(CC1CCOCC1)CC(=O)N2 [Example 81, 6-(6-(2-hydroxypropan-2-yl)-2-methylpyridin-3-yl)-4-((tetrahydro-2H-pyran-4-yl)methyl)-3,4-dihydropyrazino[2,3-b]pyrazin-2(1H)-one] | 0.005 to 250 |
| CO[C@H]1CC[C@H](N2CC(=O)Nc3ncc(-c4ccc(C(C)(C)O)nc4C)nc32)CC1 [Example 82, 6-(6-(2-hydroxypropan-2-yl)-2-methylpyridin-3-yl)-4-(trans-4-methoxycyclohexyl)-3,4-dihydropyrazino[2,3-b]pyrazin-2(1H)-one] | 250 to 500 |
